Data taken from ChEMBL document CHEMBL1128854, “Stereoselective synthesis and evaluation of all stereoisomers of Z4349, a novel and selective -opioid analgesic” (Bioorg Med Chem Lett, 1995).

What was measured:
Mu-type opioid receptor = Mu-type opioid receptor (Rattus norvegicus, UniProt P33535); test: Inhibition of [3H]dihydromorphine (1 nM) binding to mu opioid receptor of rat brain homogenate
[1] = molecular target: T1, Delta-type opioid receptor (Rattus norvegicus, UniProt P33533); test: Inhibition of [3H]-[D-Pen2, D-Pen5]-enkephalin (2 nM) to Opioid receptor delta 1 of male Sprague-Dawley rat brain homogenate
Mus musculus = test: In vivo analgesic activity in hot plate test after subcutaneous administration in mice; format: functional; settings: sc
[2] = molecular target: T2, Kappa-type opioid receptor (Rattus norvegicus, UniProt P34975); test: […] to Opioid receptor kappa 1 of rat brain homogenate; Not detectable; format: tissue-based
[3] = molecular target: T2, Kappa-type opioid receptor; test: Inhibition of 9 (2 nM) binding to Opioid receptor kappa 1 of rat brain homogenate; format: tissue-based
[4] = molecular target: T1, Delta-type opioid receptor; test: Inhibition of [3H]-[D-Pen2, D-Pen5]-enkephalin (2 nM) to Opioid receptor delta 1 of male Sprague-Dawley rat brain homogenate; Not detectable

T1 sequence (P33533 whole entry): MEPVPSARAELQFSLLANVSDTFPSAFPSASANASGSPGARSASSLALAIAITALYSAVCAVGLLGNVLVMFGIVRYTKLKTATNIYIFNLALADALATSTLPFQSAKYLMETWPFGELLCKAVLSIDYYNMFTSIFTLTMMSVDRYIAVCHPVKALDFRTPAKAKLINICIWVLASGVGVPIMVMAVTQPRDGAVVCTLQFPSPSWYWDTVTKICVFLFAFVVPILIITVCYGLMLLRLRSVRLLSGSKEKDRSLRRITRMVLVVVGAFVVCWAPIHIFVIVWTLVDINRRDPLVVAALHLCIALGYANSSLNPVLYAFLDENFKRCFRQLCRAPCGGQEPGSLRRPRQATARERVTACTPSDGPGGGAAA
Sequence of Mu-type opioid receptor (P33535 whole entry): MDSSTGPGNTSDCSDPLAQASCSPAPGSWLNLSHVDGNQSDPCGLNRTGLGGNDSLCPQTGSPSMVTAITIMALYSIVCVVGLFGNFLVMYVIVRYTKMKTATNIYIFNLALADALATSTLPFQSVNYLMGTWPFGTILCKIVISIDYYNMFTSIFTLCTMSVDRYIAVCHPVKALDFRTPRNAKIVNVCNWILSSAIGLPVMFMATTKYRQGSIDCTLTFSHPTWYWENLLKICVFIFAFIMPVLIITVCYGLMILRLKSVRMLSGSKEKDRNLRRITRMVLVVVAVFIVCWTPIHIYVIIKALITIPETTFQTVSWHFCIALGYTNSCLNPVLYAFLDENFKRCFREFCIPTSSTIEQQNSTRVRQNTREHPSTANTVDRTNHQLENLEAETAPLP
T2 sequence (P34975 whole entry): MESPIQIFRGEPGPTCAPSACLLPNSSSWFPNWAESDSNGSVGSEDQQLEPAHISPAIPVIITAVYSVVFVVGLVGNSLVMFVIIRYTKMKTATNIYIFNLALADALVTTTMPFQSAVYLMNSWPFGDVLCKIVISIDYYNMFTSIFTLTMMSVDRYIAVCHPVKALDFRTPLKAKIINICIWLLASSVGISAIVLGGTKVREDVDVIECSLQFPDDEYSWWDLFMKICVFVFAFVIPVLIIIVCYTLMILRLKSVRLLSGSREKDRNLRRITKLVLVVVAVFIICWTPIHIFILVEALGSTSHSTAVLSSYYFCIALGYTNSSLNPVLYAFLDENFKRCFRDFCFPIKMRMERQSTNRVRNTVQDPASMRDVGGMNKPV

| SMILES | Ki (Mu-type opioid receptor) [nM] | Ki [1] [nM] | ED50 (Mus musculus) [mg/kg] | Ki [2] | Ki [3] [nM] | Ki [4] |
| --- | --- | --- | --- | --- | --- | --- |
| CC[C@@H](C)N(C[C@H](O)[C@@H]1CCC(=O)N1Cc1ccccc1Cl)[C@@H](C)CC | 32 | > 5000 | 1.5 | Not Active |  |  |
| CC[C@@H](C)N(C[C@@H](O)[C@H]1CCC(=O)N1Cc1ccccc1Cl)[C@@H](C)CC | 87 | 1780 | 14.3 |  | 260 |  |
| CC[C@H](C)N(C[C@H](O)[C@H]1CCC(=O)N1Cc1ccccc1Cl)[C@@H](C)CC | > 5000 | > 5000 | > 100 |  | 270 |  |
| CC[C@H](C)N(C[C@H](O)[C@@H]1CCC(=O)N1Cc1ccccc1Cl)[C@@H](C)CC | 2250 | > 5000 | > 100 |  | > 5000 |  |
| CC[C@H](C)N(C[C@@H](O)[C@@H]1CCC(=O)N1Cc1ccccc1Cl)[C@@H](C)CC | 145 | > 5000 | > 100 |  | > 5000 |  |
| CC[C@@H](C)N(C[C@H](O)[C@H]1CCC(=O)N1Cc1ccccc1Cl)[C@H](C)CC | 100 | 1850 | 10.4 |  | > 5000 |  |
| CC[C@@H](C)N(C[C@H](O)[C@@H]1CCC(=O)N1Cc1ccccc1Cl)[C@H](C)CC | 0.25 | 265 | 0.01 |  | 62.5 |  |
| CC[C@@H](C)N(C[C@@H](O)[C@@H]1CCC(=O)N1Cc1ccccc1Cl)[C@@H](C)CC | 340 | > 5000 | > 100 |  | 3650 |  |
| CC[C@@H](C)N(C[C@@H](O)[C@H]1CCC(=O)N1Cc1ccccc1Cl)[C@H](C)CC | 35 | > 5000 | 0.47 |  | 4850 |  |
| CC[C@@H](C)N(C[C@@H](O)[C@@H]1CCC(=O)N1Cc1ccccc1Cl)[C@H](C)CC | 390 | 550 | > 100 |  | > 5000 |  |
| CC[C@@H](C)N(C[C@H](O)[C@H]1CCC(=O)N1Cc1ccccc1Cl)[C@@H](C)CC | > 5000 |  | > 100 |  | 198 | Not Active |
| CN1CC[C@]23c4c5ccc(O)c4O[C@H]2[C@@H](O)C=C[C@H]3[C@H]1C5 [MORPHINE] |  |  | 4.6 |  |  |  |
| CC[C@H](C)N(C[C@@H](O)[C@H]1CCC(=O)N1Cc1ccccc1Cl)[C@@H](C)CC | > 5000 |  | > 100 | Not Active |  | Not Active |
